Source: ChEMBL document CHEMBL6120974, “Hydrazide-Based Class I Selective HDAC Inhibitors Completely Reverse Chemoresistance Synergistically in Platinum-Resistant Solid Cancer Cells” (J Med Chem, 2024)
pIC50: −log10 of the molar value. Active and inactive are the calls of the source. No cut-off for these calls is given here.

Key:
[1] = biological target: T1, Protein deacetylase HDAC6 (Homo sapiens, UniProt Q9UBN7); assay: (§1) Inhibition of N-terminal GST-tagged full length recombinant human HDAC6 (1 to 1215 end residues) expressed in sf9 cells using ZMAL (Z-Lys(Ac)-AMC as fluorogenic substrate preincubated with compound for 60 mins followed by substrate addition and measured after 90 mins by fluorescence based microplate reader analysis
T1 sequence (Q9UBN7 whole entry): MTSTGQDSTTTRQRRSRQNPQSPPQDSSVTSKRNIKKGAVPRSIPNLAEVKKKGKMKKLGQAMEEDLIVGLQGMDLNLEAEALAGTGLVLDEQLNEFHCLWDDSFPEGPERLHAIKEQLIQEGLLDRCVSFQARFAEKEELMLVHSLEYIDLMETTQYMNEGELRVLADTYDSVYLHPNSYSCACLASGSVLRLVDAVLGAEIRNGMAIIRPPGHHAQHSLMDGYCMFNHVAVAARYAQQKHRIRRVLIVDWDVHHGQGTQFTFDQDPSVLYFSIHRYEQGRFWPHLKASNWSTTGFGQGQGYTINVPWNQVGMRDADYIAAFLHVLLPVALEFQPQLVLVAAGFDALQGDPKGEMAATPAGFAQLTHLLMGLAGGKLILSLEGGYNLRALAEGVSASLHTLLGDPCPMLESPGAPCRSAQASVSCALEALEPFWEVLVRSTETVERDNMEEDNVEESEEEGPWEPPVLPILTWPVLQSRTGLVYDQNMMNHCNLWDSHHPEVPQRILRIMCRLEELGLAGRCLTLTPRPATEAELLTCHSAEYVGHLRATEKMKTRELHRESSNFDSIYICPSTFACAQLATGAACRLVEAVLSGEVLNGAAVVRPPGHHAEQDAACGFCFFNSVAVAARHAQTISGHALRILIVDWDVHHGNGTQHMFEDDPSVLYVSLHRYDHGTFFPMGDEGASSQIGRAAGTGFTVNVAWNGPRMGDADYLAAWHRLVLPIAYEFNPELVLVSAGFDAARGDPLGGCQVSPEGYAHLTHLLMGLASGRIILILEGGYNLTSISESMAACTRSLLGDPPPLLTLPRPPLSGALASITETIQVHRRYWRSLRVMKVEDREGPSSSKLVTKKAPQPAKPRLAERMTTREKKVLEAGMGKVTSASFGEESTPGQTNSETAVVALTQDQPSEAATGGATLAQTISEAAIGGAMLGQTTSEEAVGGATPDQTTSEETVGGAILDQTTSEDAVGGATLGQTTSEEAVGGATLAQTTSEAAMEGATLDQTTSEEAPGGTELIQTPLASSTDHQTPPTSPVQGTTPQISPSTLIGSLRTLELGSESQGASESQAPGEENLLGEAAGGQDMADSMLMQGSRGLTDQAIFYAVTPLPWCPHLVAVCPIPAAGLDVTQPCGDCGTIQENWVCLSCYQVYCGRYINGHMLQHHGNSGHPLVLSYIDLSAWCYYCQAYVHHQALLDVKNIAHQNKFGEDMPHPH

A2780cisR [2] = assay: cells; conditions: Homo sapiens, 72 h
cells [3] = conditions: Homo sapiens, A2780
A2780 [4] = assay: cells; conditions: Homo sapiens, A2780, 72 h
cells [5] = conditions: Homo sapiens, Cal27CisR, 72 h
[6] = biological target: T2, Protein deacetylase HDAC6 (Homo sapiens) (UniProt Q9UBN7); assay: as §1, with “cells at > 10 uM” for “cells”, “analysis relative to control” for “analysis”; conditions: time 150.0 min
T2 sequence (whole entry): T1 sequence (Q9UBN7 whole entry)

[7] = biological target: Histone deacetylase 3/Nuclear receptor corepressor 2 (HDAC3/NCoR2) (Homo sapiens, UniProt O15379); type: cell-based, Sf9
Sequence of Histone deacetylase 3/Nuclear receptor corepressor 2 (HDAC3/NCoR2) (O15379 whole entry): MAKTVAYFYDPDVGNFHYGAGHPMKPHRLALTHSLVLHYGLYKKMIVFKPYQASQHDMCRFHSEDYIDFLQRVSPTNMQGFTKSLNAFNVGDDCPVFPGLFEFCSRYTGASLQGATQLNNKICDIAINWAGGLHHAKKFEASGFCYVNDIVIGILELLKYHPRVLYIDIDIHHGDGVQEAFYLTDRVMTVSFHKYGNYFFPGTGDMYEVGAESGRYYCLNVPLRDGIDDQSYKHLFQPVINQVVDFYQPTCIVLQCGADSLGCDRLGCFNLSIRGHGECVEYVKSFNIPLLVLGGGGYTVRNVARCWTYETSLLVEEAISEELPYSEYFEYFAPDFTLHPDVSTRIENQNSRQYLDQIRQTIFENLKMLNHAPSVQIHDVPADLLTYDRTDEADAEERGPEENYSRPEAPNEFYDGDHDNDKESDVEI
Sequence of Histone deacetylase 3/Nuclear receptor corepressor 2 (HDAC3/NCoR2) (Q9Y618 whole entry, further chain): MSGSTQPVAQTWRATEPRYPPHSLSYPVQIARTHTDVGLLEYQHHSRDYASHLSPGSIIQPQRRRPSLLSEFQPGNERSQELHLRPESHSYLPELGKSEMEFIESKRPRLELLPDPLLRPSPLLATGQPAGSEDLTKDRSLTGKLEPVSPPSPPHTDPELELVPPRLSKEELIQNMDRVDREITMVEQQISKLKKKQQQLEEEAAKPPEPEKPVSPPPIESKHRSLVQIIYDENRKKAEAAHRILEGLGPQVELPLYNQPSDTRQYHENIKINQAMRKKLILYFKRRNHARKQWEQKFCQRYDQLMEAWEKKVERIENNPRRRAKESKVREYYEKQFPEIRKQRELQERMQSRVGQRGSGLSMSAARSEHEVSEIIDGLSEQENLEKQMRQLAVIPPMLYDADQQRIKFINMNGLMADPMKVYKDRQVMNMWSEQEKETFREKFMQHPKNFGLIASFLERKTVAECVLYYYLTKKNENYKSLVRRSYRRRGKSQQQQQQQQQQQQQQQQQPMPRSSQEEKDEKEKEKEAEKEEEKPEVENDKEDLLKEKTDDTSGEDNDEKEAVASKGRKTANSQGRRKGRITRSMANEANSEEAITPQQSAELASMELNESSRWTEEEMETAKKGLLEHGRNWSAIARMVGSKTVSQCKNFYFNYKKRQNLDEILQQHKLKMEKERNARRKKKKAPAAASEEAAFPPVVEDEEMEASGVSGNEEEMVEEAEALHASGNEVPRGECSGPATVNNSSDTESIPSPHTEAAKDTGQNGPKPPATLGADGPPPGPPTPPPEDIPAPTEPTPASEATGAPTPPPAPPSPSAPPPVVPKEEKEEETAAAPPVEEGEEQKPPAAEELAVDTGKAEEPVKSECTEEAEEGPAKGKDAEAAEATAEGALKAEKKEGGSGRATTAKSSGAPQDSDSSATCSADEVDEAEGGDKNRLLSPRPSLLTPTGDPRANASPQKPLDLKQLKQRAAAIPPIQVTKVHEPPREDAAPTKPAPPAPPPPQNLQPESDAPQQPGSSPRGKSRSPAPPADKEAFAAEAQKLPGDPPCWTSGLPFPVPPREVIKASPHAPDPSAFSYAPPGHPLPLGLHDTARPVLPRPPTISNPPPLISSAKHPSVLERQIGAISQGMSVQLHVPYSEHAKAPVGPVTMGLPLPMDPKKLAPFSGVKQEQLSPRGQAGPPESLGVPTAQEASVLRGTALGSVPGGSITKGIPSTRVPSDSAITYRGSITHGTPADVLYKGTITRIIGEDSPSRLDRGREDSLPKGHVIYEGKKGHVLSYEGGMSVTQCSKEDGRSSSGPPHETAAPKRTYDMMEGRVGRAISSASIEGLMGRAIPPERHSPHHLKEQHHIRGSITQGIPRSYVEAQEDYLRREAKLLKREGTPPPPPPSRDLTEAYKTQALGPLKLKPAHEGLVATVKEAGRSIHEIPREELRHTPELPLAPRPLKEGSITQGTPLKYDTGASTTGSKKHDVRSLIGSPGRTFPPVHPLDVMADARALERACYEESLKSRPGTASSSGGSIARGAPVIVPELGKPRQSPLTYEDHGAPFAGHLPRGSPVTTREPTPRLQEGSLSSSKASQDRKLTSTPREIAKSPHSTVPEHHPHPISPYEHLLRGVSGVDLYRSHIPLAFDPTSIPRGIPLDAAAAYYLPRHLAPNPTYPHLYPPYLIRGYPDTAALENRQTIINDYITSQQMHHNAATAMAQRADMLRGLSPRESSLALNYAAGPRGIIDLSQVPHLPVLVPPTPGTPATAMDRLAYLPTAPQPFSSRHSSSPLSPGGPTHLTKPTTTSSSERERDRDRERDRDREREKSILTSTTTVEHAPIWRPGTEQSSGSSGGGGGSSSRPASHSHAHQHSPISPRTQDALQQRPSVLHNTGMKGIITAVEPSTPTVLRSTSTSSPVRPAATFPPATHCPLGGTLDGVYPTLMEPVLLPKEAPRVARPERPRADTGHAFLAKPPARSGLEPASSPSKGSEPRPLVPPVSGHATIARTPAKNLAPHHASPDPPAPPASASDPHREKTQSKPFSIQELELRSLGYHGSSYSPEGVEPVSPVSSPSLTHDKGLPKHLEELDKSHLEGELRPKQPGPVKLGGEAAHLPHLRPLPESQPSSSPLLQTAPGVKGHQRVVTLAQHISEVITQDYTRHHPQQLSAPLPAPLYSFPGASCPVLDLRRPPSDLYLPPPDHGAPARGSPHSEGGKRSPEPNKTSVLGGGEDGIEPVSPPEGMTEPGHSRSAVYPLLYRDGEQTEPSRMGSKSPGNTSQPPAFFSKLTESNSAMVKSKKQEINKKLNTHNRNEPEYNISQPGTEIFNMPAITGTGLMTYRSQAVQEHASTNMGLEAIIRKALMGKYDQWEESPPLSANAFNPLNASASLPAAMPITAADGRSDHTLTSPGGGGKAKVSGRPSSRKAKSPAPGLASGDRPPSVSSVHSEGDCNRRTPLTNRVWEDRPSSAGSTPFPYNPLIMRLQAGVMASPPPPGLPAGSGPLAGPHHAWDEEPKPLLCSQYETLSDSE

cells [8] = conditions: Homo sapiens, Cal27CisR
[9] = biological target: T3, Histone deacetylase 8 (Homo sapiens) (UniProt Q9BY41); assay: Inhibition of recombinant HDAC8 (unknown origin) at > 10 uM using Bos-Lys(TFA)-AMC as substrate preincubated with compound for 5 mins and measured after 90 mins by NOVOstar microplate reader analysis relative to control; conditions: time 95.0 min
T3 sequence (whole entry): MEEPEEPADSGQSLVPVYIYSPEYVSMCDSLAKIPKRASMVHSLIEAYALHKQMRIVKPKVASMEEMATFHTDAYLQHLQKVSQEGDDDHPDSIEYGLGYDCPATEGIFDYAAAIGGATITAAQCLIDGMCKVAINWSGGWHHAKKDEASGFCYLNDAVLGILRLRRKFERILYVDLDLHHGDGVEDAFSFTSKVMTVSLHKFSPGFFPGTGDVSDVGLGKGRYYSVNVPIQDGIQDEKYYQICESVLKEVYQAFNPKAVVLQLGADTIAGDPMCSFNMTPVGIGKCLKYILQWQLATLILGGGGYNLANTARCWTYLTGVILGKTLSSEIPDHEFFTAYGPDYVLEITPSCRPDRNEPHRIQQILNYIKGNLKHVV

Histone deacetylase 4 = Histone deacetylase 4 (Homo sapiens, UniProt P56524); assay: Inhibition of recombinant HDAC4 (unknown origin) using Bos-Lys(TFA)-AMC as substrate preincubated with compound for 5 mins and measured after 90 mins by NOVOstar microplate reader analysis
Sequence of Histone deacetylase 4 (P56524 whole entry): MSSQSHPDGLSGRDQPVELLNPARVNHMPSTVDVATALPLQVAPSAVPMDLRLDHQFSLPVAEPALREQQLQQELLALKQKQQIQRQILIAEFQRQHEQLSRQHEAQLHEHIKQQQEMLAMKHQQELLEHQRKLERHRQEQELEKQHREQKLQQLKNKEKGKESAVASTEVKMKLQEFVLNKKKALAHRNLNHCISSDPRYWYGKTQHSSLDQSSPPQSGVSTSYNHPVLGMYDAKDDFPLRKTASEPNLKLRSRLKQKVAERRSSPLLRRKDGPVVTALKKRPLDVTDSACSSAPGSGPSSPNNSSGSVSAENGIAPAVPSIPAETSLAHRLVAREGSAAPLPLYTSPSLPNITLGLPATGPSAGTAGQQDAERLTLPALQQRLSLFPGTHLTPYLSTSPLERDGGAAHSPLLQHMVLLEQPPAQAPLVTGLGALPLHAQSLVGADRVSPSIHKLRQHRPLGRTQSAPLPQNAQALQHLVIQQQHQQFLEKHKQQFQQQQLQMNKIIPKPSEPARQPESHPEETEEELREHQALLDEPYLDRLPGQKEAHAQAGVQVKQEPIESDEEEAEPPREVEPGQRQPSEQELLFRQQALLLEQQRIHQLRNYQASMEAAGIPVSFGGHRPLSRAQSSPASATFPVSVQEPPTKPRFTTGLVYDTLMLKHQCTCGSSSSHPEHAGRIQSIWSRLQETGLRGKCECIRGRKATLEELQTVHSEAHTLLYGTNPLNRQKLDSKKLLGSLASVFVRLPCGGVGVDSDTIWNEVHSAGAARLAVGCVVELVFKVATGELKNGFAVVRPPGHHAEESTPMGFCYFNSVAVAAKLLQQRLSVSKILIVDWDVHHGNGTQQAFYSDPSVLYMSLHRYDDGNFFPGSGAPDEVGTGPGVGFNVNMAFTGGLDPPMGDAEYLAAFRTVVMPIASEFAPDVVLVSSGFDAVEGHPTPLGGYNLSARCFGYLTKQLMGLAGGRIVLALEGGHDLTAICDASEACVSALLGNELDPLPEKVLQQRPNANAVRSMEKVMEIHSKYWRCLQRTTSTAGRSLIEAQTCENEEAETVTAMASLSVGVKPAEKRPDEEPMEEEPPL

Histone deacetylase 8 = biological target: T4, Histone deacetylase 8 (Homo sapiens, UniProt Q9BY41); assay: Inhibition of recombinant HDAC8 (unknown origin) using Bos-Lys(TFA)-AMC as substrate preincubated with compound for 5 mins and measured after 90 mins by NOVOstar microplate reader analysis
T4 sequence (Q9BY41 whole entry): T3 sequence (whole entry)

CAL-27 [10] = assay: cells; conditions: Homo sapiens, CAL-27, 72 h
cells [11] = conditions: Homo sapiens, CAL-27
cells [12] = conditions: Homo sapiens, A2780cisR
cells [13] = conditions: Homo sapiens, Cal27CisR; remark: listed apart in the source
cells [14] = conditions: Homo sapiens, A2780cisR; remark: listed apart in the source
cells [15] = conditions: Homo sapiens, A2780; remark: listed apart in the source
cells [16] = conditions: Homo sapiens, CAL-27; remark: listed apart in the source
[17] = biological target: T2, Protein deacetylase HDAC6 (Homo sapiens); assay: as §1, with “cells at > 3.33 uM” for “cells”, “analysis relative to control” for “analysis”
A2780 [18] = assay: Cytotoxicity against human A2780 cells at < 100 uM assessed as reduction in cell viability incubated for 72 hrs by MTT assay; type: functional, cell-based
[19] = biological target: Histone deacetylase 2 (Homo sapiens) (UniProt Q92769); assay: (§2) Inhibition of C-terminal FLAG tagged full length human recombinant HDAC2 (1 to 488 end residues) expressed in sf9 cells at 10 uM using ZMAL (Z-Lys(Ac)-AMC as fluorogenic substrate preincubated with compound for 60 mins followed by substrate addition and measured after 90 mins by fluorescence based microplate reader analysis relative to control; conditions: time 150.0 min
Sequence of Histone deacetylase 2 (Homo sapiens) (Q92769 whole entry): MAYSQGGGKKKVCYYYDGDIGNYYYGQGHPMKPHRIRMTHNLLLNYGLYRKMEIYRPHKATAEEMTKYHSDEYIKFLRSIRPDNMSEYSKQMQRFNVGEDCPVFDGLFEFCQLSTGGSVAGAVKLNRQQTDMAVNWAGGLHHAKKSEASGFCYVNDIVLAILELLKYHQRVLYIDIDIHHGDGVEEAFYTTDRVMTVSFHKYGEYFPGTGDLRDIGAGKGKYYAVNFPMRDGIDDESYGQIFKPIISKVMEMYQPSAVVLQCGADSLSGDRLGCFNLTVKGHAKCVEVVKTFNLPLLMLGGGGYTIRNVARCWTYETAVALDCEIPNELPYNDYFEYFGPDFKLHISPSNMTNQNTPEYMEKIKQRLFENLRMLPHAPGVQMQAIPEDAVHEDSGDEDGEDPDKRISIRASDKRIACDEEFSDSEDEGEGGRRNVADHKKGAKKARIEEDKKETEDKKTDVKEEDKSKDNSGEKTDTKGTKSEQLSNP

Cal27CisR = assay: Cytotoxicity against cisplatin resistant human Cal27CisR cells at < 10 uM assessed as reduction in cell viability incubated for 72 hrs by MTT assay; type: functional, cell-based
[20] = biological target: T5, Histone deacetylase 3/Nuclear receptor corepressor 2 (HDAC3/NCoR2) (Homo sapiens) (UniProt O15379+Q9Y618); assay: as §2, with “His” for “FLAG”, “tagged” for “tagged full length”, “HDAC3” for “HDAC2”, “428” for “488”, “residues)/N-terminal GST-tagged human NcoR2” for “residues)”; conditions: time 150.0 min
[21] = biological target: T2, Protein deacetylase HDAC6 (Homo sapiens); assay: as §1, with “cells at 10 uM” for “cells”, “analysis relative to control” for “analysis”; conditions: time 150.0 min
Histone deacetylase 1 = Histone deacetylase 1 (Homo sapiens, UniProt Q13547); assay: as §2, with “6-his/FLAG” for “FLAG”, “HDAC1” for “HDAC2”, “482” for “488”; conditions: time 150.0 min
Sequence of Histone deacetylase 1 (Q13547 whole entry): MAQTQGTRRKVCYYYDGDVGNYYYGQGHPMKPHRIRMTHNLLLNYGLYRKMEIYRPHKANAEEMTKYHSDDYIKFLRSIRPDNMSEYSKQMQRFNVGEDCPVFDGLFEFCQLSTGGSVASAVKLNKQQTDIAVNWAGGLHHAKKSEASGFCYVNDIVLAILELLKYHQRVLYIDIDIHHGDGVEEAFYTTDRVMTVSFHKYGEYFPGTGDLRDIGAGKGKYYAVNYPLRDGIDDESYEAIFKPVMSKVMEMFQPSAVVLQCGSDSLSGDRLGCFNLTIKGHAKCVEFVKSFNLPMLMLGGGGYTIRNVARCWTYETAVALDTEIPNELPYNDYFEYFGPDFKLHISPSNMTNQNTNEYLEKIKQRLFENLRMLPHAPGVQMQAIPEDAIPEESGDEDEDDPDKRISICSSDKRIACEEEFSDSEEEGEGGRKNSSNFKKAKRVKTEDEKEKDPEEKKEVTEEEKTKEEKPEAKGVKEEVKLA

A2780cisR [22] = assay: Cytotoxicity against cisplatin resistant human A2780 cisR cells at < 100 uM assessed as reduction in cell viability incubated for 72 hrs by MTT assay; type: functional, cell-based
CAL-27 [23] = assay: Cytotoxicity against human CAL-27 cells at < 100 uM assessed as reduction in cell viability incubated for 72 hrs by MTT assay; type: functional, cell-based
A2780 [24] = assay: Inhibition of class I/6 HDAC (unknown origin) in human A2780 cells at < 100 uM using Boc-Lys(epsilon-Ac)-AMC as substrate preincubated with compound for 18 hrs followed by substrate addition and measured after 3 hrs by NOVOstar microplate reader analysis; type: cell-based
A2780 cisR = assay: Inhibition of class I/6 HDAC (unknown origin) in cisplatin resistant human A2780 cisR cells at < 100 uM using Boc-Lys(epsilon-Ac)-AMC as substrate preincubated with compound for 18 hrs followed by substrate addition and measured after 3 hrs by NOVOstar microplate reader analysis; type: cell-based
[25] = biological target: T5, Histone deacetylase 3/Nuclear receptor corepressor 2 (HDAC3/NCoR2) (Homo sapiens); assay: Inhibition of C-terminal His tagged human recombinant HDAC3 (1 to 428 end residues)/N-terminal GST-tagged human NcoR2 expressed in sf9 cells at > 10 uM using ZMAL (Z-Lys(Ac)-AMC as fluorogenic substrate preincubated with compound for 60 mins followed by substrate addition and measured after 90 mins by fluorescence based microplate reader analysis relative to control; conditions: time 150.0 min

Structure (SMILES)	pIC50 [1]	pIC50 (A2780cisR [2])	pIC50 (cells [3])	pIC50 (A2780 [4])	pIC50 (cells [5])	inhibition [6]	pIC50 [7]	pIC50 (cells [8])	inhibition [9]	pIC50 (Histone deacetylase 4)	pIC50 (Histone deacetylase 8)	pIC50 (CAL-27 [10])	pIC50 (cells [11])	pIC50 (cells [12])	Activity (Cal27CisR)	Activity (A2780cisR [22])	further results
CN(C)c1ccc(C(=O)N(CC(=O)NCc2ccccc2)Cc2ccc(C(=O)NNCCC(F)(F)F)cc2)cc1	< 5.00	5.09	6.16	5.65	5.50	< 25%	7.43	6.41	< 25%	< 5.00	< 5.00	5.66	6.42	6.04			
CC(C)CCNNC(=O)c1ccc(CN(CC(=O)NCc2ccccc2)C(=O)c2ccc(N(C)C)cc2)cc1	< 5.00	4.80	5.54	5.31	5.07	< 25%	6.70	6.03		< 5.00		5.47	6.08	5.68			
CN(C)c1ccc(C(=O)N(CC(=O)NCc2ccccc2)Cc2ccc(C(=O)NN)cc2)cc1			4.48					4.44	< 25%	< 5.00	< 5.00	4.20	4.51	4.42	inactive	inactive	Activity (A2780 [18]): inactive; inhibition [19]: 53%; inhibition [20]: 57%; inhibition [21]: 55%; inhibition (Histone deacetylase 1): 62%
CN(C)c1ccc(C(=O)N(CC(=O)NCc2ccccc2)Cc2ccc(C(=O)NNc3ccccc3)cc2)cc1	< 5.00		4.56			< 25%	5.42	4.61	< 25%	< 5.00	< 5.00	4.22	4.67	4.44	inactive	inactive	Activity (A2780 [18]): inactive
CN(C)c1ccc(C(=O)N(CC(=O)NCc2ccccc2)Cc2ccc(C(=O)NNCC3CC3)cc2)cc1	< 5.00	5.04	6.14	5.58	5.57	< 25%		6.41		< 5.00		5.70	6.41	6.01			pIC50 (cells [13]): 5.89; pIC50 (cells [14]): 4.92; pIC50 (cells [15]): 5.07; pIC50 (cells [16]): 5.53

Now from value to compound, other results behind:

pIC50 [1]	pIC50 (A2780cisR [2])	pIC50 (cells [3])	pIC50 (A2780 [4])	pIC50 (cells [5])	inhibition [6]	pIC50 [7]	pIC50 (cells [8])	inhibition [9]	pIC50 (Histone deacetylase 4)	pIC50 (Histone deacetylase 8)	pIC50 (CAL-27 [10])	pIC50 (cells [11])	pIC50 (cells [12])	Structure (SMILES)	Activity (Cal27CisR)	Activity (A2780cisR [22])	further results
< 5.00	5.08	5.91	5.36	5.58			6.31		< 5.00	< 5.00	5.70	6.49	5.79	CN(C)c1ccc(C(=O)N(CC(=O)NCc2ccccc2)Cc2ccc(C(=O)Nc3ccccc3N)cc2)cc1			pIC50 (cells [13]): 5.19; pIC50 (cells [14]): 4.32; pIC50 (cells [15]): 4.30; pIC50 (cells [16]): 5.03
< 5.48	5.47	6.56	6.17	5.82		7.14	6.66		< 5.00		6.07	6.58	6.48	CCCCCNNC(=O)c1ccc(CN(CC(=O)NCc2ccccc2)C(=O)c2ccc(N(C)C)cc2)cc1			inhibition [17]: < 25%
< 5.00			4.15		< 25%	< 5.00	4.36	< 25%	< 5.00	< 5.00		4.08		CN(C)c1ccc(C(=O)N(CC(=O)NCc2ccccc2)Cc2ccc(C(=O)NNCCC(C)(C)C)cc2)cc1	inactive	inactive	inhibition [19]: 46%; Activity (CAL-27 [23]): inactive; inhibition (A2780 [24]): inactive; inhibition (Histone deacetylase 1): 63%; inhibition (A2780 cisR): inactive; inhibition [25]: < 25%
< 5.00	4.45	5.66	5.23	4.67		5.92	5.71		< 5.00		4.99	5.61	5.53	CN(C)c1ccc(C(=O)N(CC(=O)NCc2ccccc2)Cc2ccc(C(=O)NNCCCc3ccccc3)cc2)cc1			inhibition [17]: < 25%
